Laboratory results published in patent US8748369B2, “Use of targeted nitroxide agents in bone healing” (University of Pittsburgh-Of the Commonwealth System of …, priority 2009, dated 2014).
Several values for one entry are separate records, joined by “and”; a condition that tells them apart may be missing. Equal values may be shown once. Where a SMILES comes first, the peptide text is derived from it. [ ]: non-standard residue; d: D form. The star is where a group is joined. NH(TEMPO-4-yl) = CC1(C)CC(N*)CC(C)(C)N1[O]; Orn = NCCC[C@H](N)C(=O)O; Cbz = O=C(OCc1ccccc1)*; Boc = CC(C)(C)OC(=O)*

Experiments:
[1] = tested on: mice exposed to total body irradiation; assay: Survival of mice after total body irradiation; assay type: in vivo, mouse
Method: Mice received intraperitoneal injection of 10 mg. per kilogram of each of the chemicals indicated in FIG. 5, then 24 hours later received 9.75 Gy total body irradiation according to published methods. Mice were followed for survival according to IACUC regulations. […] (P=0.0008).
Groups of 15 mice received intraperitoneal injection of 10 mg. per kilogram of each indicated GS-nitroxide compound or carrier (Cremphora plus alcohol at 1 to 1 ratio, then diluted 1 to 10 in distilled water). Mice received 10 mg per kilogram intra-peritoneal injection 24 hours prior to total body irradiation. Control mice received radiation alone. […] (P=0.0005)

[2] = tested on: C57BL/6NHsd mice, tibial bone wounds; assay: Unicortical tibial bone wound healing with or without 20 Gy limb irradiation; assay type: in vivo, mouse
[3] = log octanal/water (Ko/w) partition coefficient; assay type: physicochemical
From the text: A practical skin patch is planned for delivery of JP4-039 or other compounds delivered herein. The patch can be administered to a subject before, during or after exposure to radiation, including 24 hr or later after irradiation exposure of the subject. In preliminary studies, we sought to characterize the absorption/penetration of a topically applied representative GS-Nitroxide XJB-5-125 in mouse skin. XJB-5-125 was selected as a potential topical agent based on its ability to inhibit ROS generation, inhibit apoptosis and suppress oxidative damage to mitochondrial lipids. […] The physical properties of a chemical are critical to its ability to penetrate into and through the skin. Two important factors are the log octanal/water (Ko/w) partition coefficient and the molecular weight. For XJB-5-125, the log Ko/w=4.5 and molecular weight is 956. The lipophilicity “rule” is based on the need for a compound to partition out of the lipophilic stratum corneum and into the more hydrophilic epidermis and dermis.

[4] = Topical and transdermal absorption through mouse skin (Bronaugh diffusion cell, EPR); assay type: in vitro ADME; details: preliminary experiment
From the text: A small piece of skin (2 cm^2) was placed in a Bronaugh style flow-through diffusion cell system (PermeGear, Riegelsville, Pa.) (FIG. 22). It was then sandwiched between two pieces of the inert polymer Kel-F and clamped shut to prevent leakage. The epidermal side faces upward and is exposed to the donor solution (test solution), and the dermal side is in contact with the receptor fluid. The exposed surface area is 0.79 cm^2 (circular chamber with 1 cm diameter). The skin forms a water-tight seal in the flow through chamber so the receiving fluid (PBS+25% ethanol) on the dermal side will contain the XJB-5-125 only if it has penetrated through the skin. The receiver chamber was perfused with this buffer that then passes to a fraction collector via Teflon tubing. The PBS+25% ethanol was used because it is an effective sink for hydrophobic compounds and produces better in vitro/in vivo correlations than other receiver solutions. The skin was maintained at 32° C. by placing the chamber in a metal block heated via a recirculating water bath. […]
EPR spectra were recorded at 334.7 mT, center field; 20 mW, power; 0.079 mT, field modulation; 5 mT, sweep width; 400 and 4000, receiver gain; 0.1 s, time constraint. […]
Further, the total transdermal absorption after 24 hours and the level of XJB-5-125 present in the viable skin can be successfully measured using the techniques described herein. […]

| SMILES | survival of mice exposed to 9.75 Gy total body irradiation ([1]; 10 mg per kilogram intraperitoneal 24 hours before irradiation) | survival of mice exposed to 9.5 Gy total body irradiation ([1]; 10 mg per kilogram intraperitoneal 24 hours prior to irradiation) | bone wound healing in the absence of RT ([2]; 0 Gy) | Hole Diameter, mean ± SEM ([2]; 0 Gy, Day 7 post-drilling) [mm] | Hole Diameter, mean ± SEM ([2]; 0 Gy, Day 14 post-drilling) | Hole Diameter, mean ± SEM ([2]; 0 Gy, Day 21 post-drilling) [mm] | Hole Diameter, mean ± SEM ([2]; 0 Gy, Day 28 post-drilling) [mm] | Hole Diameter, mean ± SEM ([2]; 20 Gy, Day 7 post-drilling) [mm] | Hole Diameter, mean ± SEM ([2]; 20 Gy, Day 14 post-drilling) [mm] | Hole Diameter, mean ± SEM ([2]; 20 Gy, Day 21 post-drilling) | Hole Diameter, mean ± SEM ([2]; 20 Gy, Day 28 post-drilling) | RT-induced delay in osseus wound healing ([2]; given prior to 20 Gy RT) | histology: bone fill of wounds versus irradiated mice ([2]; pre-treated prior to irradiation) | log Ko/w [3] | penetration of intact skin [4] |
| --- | --- | --- | --- | --- | --- | --- | --- | --- | --- | --- | --- | --- | --- | --- | --- |
| CC(C)C[C@@H](/C=C/CC(=O)NC1CC(C)(C)N([O])C(C)(C)C1)NC(=O)OC(C)(C)C [JP4-039, (S,E)-5-(tert-Butoxycarbonylamino)-7-methyloct-3-enoic acid-TEMPO] | significant increase in survival | increases survival | conferred more rapid healing | 1.02 ± 0.07 | 0.6±0.05 mm and 0.55±0.03 mm | 0.47 ± 0.04 | 0.23 ± 0.04 | 1.14 ± 0.04 | 0.92 ± 0.08 | 0.5±0.05 mm and 0.51±0.05 mm | 0.4±0.04 mm and 0.37±0.04 mm | ameliorated this RT-induced delay | more bone fill |  |  |
| CC(C)C[C@H](NC(=O)OC(C)(C)C)C(=O)N[C@H](Cc1ccccc1)C(=O)N1CCC[C@H]1C(=O)N[C@H](C(=O)N[C@@H](CCCNC(=O)OCc1ccccc1)C(=O)NC1CC(C)(C)N([O])C(C)(C)C1)C(C)C [XJB-5-125] (Boc-L[dF]PV[Orn](Cbz)-{NH(TEMPO-4-yl)}) |  |  |  |  |  |  |  |  |  |  |  |  |  | 4.5 | can sufficiently penetrate intact skin |
